# Data reported in ChEMBL document CHEMBL5042497, “Design, synthesis, and biological evaluation of carbamate derivatives of N-salicyloyl tryptamine as multifunctional agents for the treatment of Alzheimer's disease” (Eur J Med Chem, 2022).
# Activity calls are given as the source filed them. The rule behind the calls is not given here.
# What was measured:
# HT-22 = assay: cells; assay type: functional, cell-based; conditions: Mus musculus, HT-22, 24 h
# Description: Cytotoxicity against mouse HT-22 cells assessed as reduction in cell viability measured after 24 hrs by MTT assay
# [1] = Acute toxicity in Sprague-Dawley rat assessed as abnormality in living off at 2000 mg/kg, IG administered as single dose measured after 14 days; assay type: organism-based; conditions: in vivo, po, 336 h, time 14 day
# in vivo = conditions: Sprague-Dawley, rat, brain/plasma, 100 mg/kg
# Description: Ratio of drug concentration in brain to plasma in Sprague-Dawley rat at 100 mg/kg measured at 10 mins by LC-MS analysis
# Mus musculus [2] = assay: Anti-alzheimer activity against scopolamine-induced cognitive dysfunction mouse model assessed as […] of AChE activity in hippocampus at 50 to 100 mg/kg, po dosed for 10 days by colorimetric analysis; assay type: functional, organism-based; conditions: dose 50-100 mg/kg, time 10.0 day
# BV-2 [3] = assay: Anti-neuroinflammation in mouse BV-2 cells assessed as increase in LPS-induced IL-4 production measured after 24 hrs by ELISA; assay type: functional, cell-based; conditions: dose 6.25-25 µmol/L
# BV-2 [4] = assay: Anti-neuroinflammation in mouse BV-2 cells assessed as inhibition of LPS-induced NO production at 100 to 3.125 umol/L measured after 24 hrs by Griess method; assay type: functional, cell-based; conditions: dose 100-3.125 µmol/L
# Mus musculus [5] = assay: Anti-alzheimer activity against scopolamine-induced cognitive dysfunction mouse model assessed as increase in rate of time spend in central and peripheral area at 50 to 100 mg/kg,po dosed for 10 days and measured after 30 mins on day 11 by open field test; assay type: functional, organism-based; conditions: dose 50-100 mg/kg, time 10.0 day
# [6] = MRT(0 to t) in Sprague-Dawley rat at 100 mg/kg, po measured upto 24 hrs by LC-MS analysis; assay type: ADME, organism-based; conditions: in vivo
# BV-2 [7] = assay: Effect of compound on LPS- induced ROS production in mouse BV-2 cells at 6.25 to 25 uM by microscopic analysis; assay type: functional, cell-based; conditions: dose 6.25-25 µM
# Mus musculus [8] = assay: Anti-alzheimer activity against scopolamine-induced cognitive dysfunction mouse model assessed as increase in movement distance in central and peripheral area at 50 to 100 mg/kg,po dosed for 10 days and measured after 30 mins on day 11 by open field test; assay type: functional, organism-based; conditions: dose 50-100 mg/kg, time 10.0 day
# Cholinesterase [9] = target: T1, Cholinesterase (Equus caballus, UniProt P81908); assay: Inhibition of equine serum BChE using butyrylthiocholine iodide as substrate assessed as inhibition constant at 0.78 to 12.5 uM preincubated for 10 mins followed by substrate addition and measured after 15 mins by Lineweaver-Burk plot analysis
# [10] = Half life in Sprague-Dawley rat at 100 mg/kg, po measured upto 24 hrs by LC-MS analysis; assay type: ADME, organism-based; conditions: in vivo
# BV-2 [11] = assay: cells; assay type: functional, cell-based; conditions: Mus musculus, BV-2, 24 h
# Description: Cytotoxicity against mouse BV-2 cells assessed as reduction in cell viability measured after 24 hrs by MTT assay
# [12] = Tmax in Sprague-Dawley rat at 100 mg/kg, po measured upto 24 hrs by LC-MS analysis; assay type: ADME, organism-based; conditions: in vivo
# [13] = Acute toxicity in Sprague-Dawley rat assessed as behavioral abnormality at 2000 mg/kg, IG administered as single dose measured after 14 days; assay type: organism-based; conditions: in vivo, po, 336 h, time 14 day
# [14] = AUC (0 to t) in Sprague-Dawley rat at 100 mg/kg, po measured upto 24 hrs by LC-MS analysis; assay type: ADME, organism-based; design: route oral, dose 100 mg/kg, time <=24; conditions: in vivo
# BV-2 [15] = assay: Anti-neuroinflammation in mouse BV-2 cells assessed as decrease in LPS-induced IL-6 production at 6.25 to 25 umol/L measured after 24 hrs by ELISA; assay type: functional, cell-based; conditions: dose 6.25-25 µmol/L
# BV-2 [16] = assay: Anti-neuroinflammation in mouse BV-2 cells assessed as decrease in LPS-induced iNOS activity at 6.25 to 25 umol/L by fluorescence based assay; assay type: functional, cell-based; conditions: dose 6.25-25 µmol/L
# BV-2 [17] = assay: Effect of compound on LPS- induced iNOS production in mouse BV-2 cells incubated for 24 hrs by western blot analysis; assay type: functional, cell-based; conditions: dose 6.25-25 µM
# [18] = Acute toxicity in Sprague-Dawley rat assessed as histological changes in liver at 2000 mg/kg, IG administered as single dose measured after 14 days by H and E staining based analysis; assay type: organism-based; conditions: in vivo, po, 336 h, time 14 day
# [19] = Acute toxicity in Sprague-Dawley rat assessed as abnormality in body weight at 2000 mg/kg, IG administered as single dose measured after 14 days; assay type: organism-based; conditions: in vivo, po, 336 h, time 14 day
# Mus musculus [20] = assay: Anti-alzheimer activity against scopolamine-induced cognitive dysfunction mouse model assessed as decrease in swimming distance at 100 mg/kg, po dosed for 10 days and measured after 30 mins on day 11 by Morris water maze test; assay type: functional, organism-based; conditions: time 10.0 day
# [21] = target: Amyloid-beta precursor protein (Homo sapiens) (UniProt P05067); assay: Inhibition of amyloid beta (1 to 42 ) (unknown origin) aggregation at 20 umol/L incubated for 24 hrs by thioflavin-T fluorescence method relative to control; conditions: dose 20.0 µmol/L
# [22] = Acute toxicity in Sprague-Dawley rat assessed as lethal dose administered intragastrically as single dose measured after 14 days; conditions: in vivo, po, time 14 day
# Mus musculus [23] = assay: Anti-alzheimer activity against scopolamine-induced cognitive dysfunction mouse model assessed as change in neuron damage in hippocampal CA3 region at 50 to 100 mg/kg, po measured after 10 days by Nissl staining based assay; assay type: functional, organism-based; conditions: Hippocampus, dose 50-100 mg/kg, time 10.0 day
# [24] = Acute toxicity in Sprague-Dawley rat assessed as histological changes in brain at 2000 mg/kg, IG administered as single dose measured after 14 days by H and E staining based analysis; assay type: organism-based; conditions: in vivo, po, 336 h, time 14 day
# Acetylcholinesterase [25] = target: T2, Acetylcholinesterase (Electrophorus electricus, UniProt O42275); assay: Inhibition of electric eel AChE using acetylthiocholine iodide as substrate assessed as inhibition constant at 0.78 to 12.5 uM preincubated for 10 mins followed by substrate addition and measured for 15 mins by Lineweaver-Burk plot analysis
# Cholinesterase [26] = target: T1, Cholinesterase; assay: Inhibition of equine serum BChE using butyrylthiocholine iodide as substrate preincubated for 10 mins followed by substrate addition and measured after 15 mins by Ellman's method
# BV-2 [27] = assay: Anti-neuroinflammation in mouse BV-2 cells assessed as decrease in LPS-induced TNF-alpha production at 6.25 to 25 umol/L measured after 24 hrs by ELISA; assay type: functional, cell-based; conditions: dose 6.25-25 µmol/L
# [28] = Acute toxicity in Sprague-Dawley rat assessed as histological changes in heart at 2000 mg/kg, IG administered as single dose measured after 14 days by H and E staining based analysis; assay type: organism-based; conditions: in vivo, po, 336 h, time 14 day
# Acetylcholinesterase [29] = target: T2, Acetylcholinesterase; assay: Inhibition of electric eel AChE using acetylthiocholine iodide as substrate preincubated for 10 mins followed by substrate addition and measured for 15 mins by Ellman's method
# [30] = Cmax in Sprague-Dawley rat at 100 mg/kg, po measured upto 24 hrs by LC-MS analysis; assay type: ADME, organism-based; design: route oral, dose 100 mg/kg, time <=24; conditions: in vivo
# Mus musculus [31] = assay: Anti-alzheimer activity against scopolamine-induced cognitive dysfunction mouse model assessed as change in neuron damage in hippocampal CA1 region at 50 to 100 mg/kg, po measured after 10 days by Nissl staining based assay; assay type: functional, organism-based; conditions: Hippocampus, dose 50-100 mg/kg, time 10.0 day
# [32] = Acute toxicity in Sprague-Dawley rat assessed as abnormality in diet at 2000 mg/kg, IG administered as single dose measured after 14 days; assay type: organism-based; conditions: in vivo, po, 336 h, time 14 day
# [33] = Acute toxicity in Sprague-Dawley rat assessed as histological changes in spleen at 2000 mg/kg, IG administered as single dose measured after 14 days by H and E staining based analysis; assay type: organism-based; conditions: in vivo, po, 336 h, time 14 day
# T2 sequence (O42275 whole entry): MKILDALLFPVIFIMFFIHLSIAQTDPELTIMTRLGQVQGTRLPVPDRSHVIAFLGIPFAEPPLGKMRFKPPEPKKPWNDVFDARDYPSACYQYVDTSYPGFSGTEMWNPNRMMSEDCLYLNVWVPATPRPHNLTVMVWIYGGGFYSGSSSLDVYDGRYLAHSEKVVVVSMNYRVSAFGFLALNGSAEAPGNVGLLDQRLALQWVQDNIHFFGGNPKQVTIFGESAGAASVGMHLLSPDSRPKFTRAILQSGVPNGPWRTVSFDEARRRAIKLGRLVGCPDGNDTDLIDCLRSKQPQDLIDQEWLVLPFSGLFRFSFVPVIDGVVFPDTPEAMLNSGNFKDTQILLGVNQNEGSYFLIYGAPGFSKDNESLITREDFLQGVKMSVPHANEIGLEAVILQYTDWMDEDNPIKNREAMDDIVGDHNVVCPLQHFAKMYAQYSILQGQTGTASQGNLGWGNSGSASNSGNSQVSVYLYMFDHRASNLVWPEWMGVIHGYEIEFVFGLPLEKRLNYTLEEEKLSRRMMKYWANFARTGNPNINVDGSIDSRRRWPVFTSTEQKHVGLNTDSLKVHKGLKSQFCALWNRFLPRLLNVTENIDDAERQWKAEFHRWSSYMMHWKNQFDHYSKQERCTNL
# T1 sequence (P81908 whole entry): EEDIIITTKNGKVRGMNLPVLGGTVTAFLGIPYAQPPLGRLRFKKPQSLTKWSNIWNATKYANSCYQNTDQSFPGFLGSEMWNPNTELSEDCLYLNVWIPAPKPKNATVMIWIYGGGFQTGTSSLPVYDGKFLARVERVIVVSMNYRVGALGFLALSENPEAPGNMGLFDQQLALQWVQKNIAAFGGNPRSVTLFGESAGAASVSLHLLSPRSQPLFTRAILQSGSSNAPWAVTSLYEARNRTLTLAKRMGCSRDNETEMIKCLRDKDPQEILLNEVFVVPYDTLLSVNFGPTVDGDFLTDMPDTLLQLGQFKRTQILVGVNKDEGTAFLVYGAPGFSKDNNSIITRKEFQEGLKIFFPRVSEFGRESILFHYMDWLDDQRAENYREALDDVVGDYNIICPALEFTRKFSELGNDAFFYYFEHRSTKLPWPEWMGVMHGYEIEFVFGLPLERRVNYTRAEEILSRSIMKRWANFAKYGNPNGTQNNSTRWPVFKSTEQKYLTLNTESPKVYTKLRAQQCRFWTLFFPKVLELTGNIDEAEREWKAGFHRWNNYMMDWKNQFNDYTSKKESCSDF
# Sequence of Amyloid-beta precursor protein (Homo sapiens) (P05067 whole entry): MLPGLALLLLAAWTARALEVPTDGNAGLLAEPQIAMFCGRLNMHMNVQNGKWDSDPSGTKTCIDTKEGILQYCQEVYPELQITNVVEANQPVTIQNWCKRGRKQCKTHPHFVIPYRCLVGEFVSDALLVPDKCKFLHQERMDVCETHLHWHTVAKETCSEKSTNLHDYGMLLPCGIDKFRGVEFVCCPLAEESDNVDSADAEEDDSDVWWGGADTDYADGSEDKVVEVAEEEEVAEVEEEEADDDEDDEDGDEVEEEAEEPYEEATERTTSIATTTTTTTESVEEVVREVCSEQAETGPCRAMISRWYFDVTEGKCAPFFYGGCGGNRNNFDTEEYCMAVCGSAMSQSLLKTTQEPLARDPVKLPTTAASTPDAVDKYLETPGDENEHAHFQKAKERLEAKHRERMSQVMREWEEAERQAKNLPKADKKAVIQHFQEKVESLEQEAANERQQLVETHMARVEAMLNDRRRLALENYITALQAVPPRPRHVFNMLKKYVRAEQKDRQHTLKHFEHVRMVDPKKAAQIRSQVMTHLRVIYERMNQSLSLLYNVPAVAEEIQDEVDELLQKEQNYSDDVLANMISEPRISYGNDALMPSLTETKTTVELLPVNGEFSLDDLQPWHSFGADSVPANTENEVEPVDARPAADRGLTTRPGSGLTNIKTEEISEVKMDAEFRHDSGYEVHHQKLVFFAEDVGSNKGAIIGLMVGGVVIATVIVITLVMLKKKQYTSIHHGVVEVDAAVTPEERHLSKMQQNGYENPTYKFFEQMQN
smiles,measurement,setting,value
CON(C)C(=O)Oc1ccccc1C(=O)NCCc1c[nH]c2ccccc12,IC50,HT-22,140 µM
same,Activity,[1],Non-Toxic
same,Kp at 10 min,in vivo,15.7
same,Activity,Mus musculus [2],Active
same,Activity,BV-2 [3],Dose-Dependent Effect
same,Activity,BV-2 [4],Active
same,Activity,Mus musculus [5],Dose-Dependent Effect
same,MRT last at 24 h,[6],4.89 h
same,Activity,BV-2 [7],Active
same,Activity,Mus musculus [8],Dose-Dependent Effect
same,Ki,Cholinesterase [9],0.892 µM
same,half-life,[10],5.34 h
same,IC50,BV-2 [11],197 µM
same,Tmax,[12],4.8 min
same,Activity,[13],Non-Toxic
same,AUC(0-t) at 24 h,[14],3900 ng·h/mL
same,Activity,BV-2 [15],Active
same,Activity,BV-2 [16],Active
same,Activity,BV-2 [17],Dose-Dependent Effect
same,Activity,[18],Non-Toxic
same,Activity,[19],Non-Toxic
same,Activity,Mus musculus [20],Active
same,inhibition,[21],40.3%
same,LD50 at 336 h,[22],> 2000 mg/kg
same,Activity,Mus musculus [23],Active
same,Activity,[24],Non-Toxic
same,Ki,Acetylcholinesterase [25],1.6 µM
same,IC50,Cholinesterase [26],1.84 µM
same,Activity,BV-2 [27],Active
same,Activity,[28],Non-Toxic
same,IC50,Acetylcholinesterase [29],3.24 µM
same,Cmax,[30],3030 ng/mL
same,Activity,Mus musculus [31],Active
same,Activity,[32],Non-Toxic
same,Activity,[33],Non-Toxic
